These are literature values, as cited in US7649096B2, “Process for the preparation of a crystalline form of (S)-N [[3-(3-fluoro-4(4-morpholinyl) phenyl]-2-oxo-5-oxazolidinyl] methyl] acetamide” (Glenmark Pharmaceuticals Limited, priority 2005, dated 2010).

In one data set the test system is staphylococci. The note with it: against staphylococci.
A further data set concerns streptococci. The note with it: majority of strains.
In the next data set the test system is enterococci. The note with it: against enterococci.

Consider `CC(=O)NC[C@H]1CN(c2ccc(N3CCOCC3)c(F)c2)C(=O)O1` [linezolid, (S)-N-[[3-[3-fluoro-4-(4-morpholinyl)phenyl]-2-oxo-5-oxazolidinyl]methyl]acetamide], for which the “results of time-kill studies (bacteriostatic or bactericidal)” value with staphylococci is reported as “bacteriostatic”; in the data set with streptococci, “bactericidal for the majority of strains”; in the data set with enterococci, “bacteriostatic”.
